Assays:
hCA I = hCA I (Homo sapiens, UniProt P00915); test: stopped flow CO2 hydrase assay, hCA I
Protocol: (§1) An Applied Photophysics stopped-flow instrument was used for assaying the CA-catalyzed CO2 hydration activity [50]. […] However, the background activity from the uncatalyzed reaction was always subtracted when IC50 values were obtained by using the data analysis software for the stopped-flow instrument. […] The uncatalyzed rates were determined in the same manner and subtracted from the total observed rates. Stock solutions of the inhibitor (0.1 mM) were prepared in distilled–deionized water, and dilutions up to 0.01 nM were performed thereafter with the assay buffer. Inhibitor and enzyme solutions were preincubated together for 15 min at room temperature prior to the assay, to allow for the formation of the E–I complex. The inhibition constants were obtained by nonlinear least-squares methods using PRISM 3 and the Cheng–Prusoff equation as reported earlier and represented the mean from at least three different determinations. All CA isoforms were recombinant proteins obtained in-house, as reported earlier [2, 51, 52].

hCA XII = hCA XII (Homo sapiens, UniProt O43570); test: stopped flow CO2 hydrase assay, hCA XII
Protocol: as §1

hCA II = hCA II (Homo sapiens, UniProt P00918); test: stopped flow CO2 hydrase assay, hCA II
Protocol: as §1

hCA IX = hCA IX (Homo sapiens, UniProt Q16790); test: stopped flow CO2 hydrase assay, hCA IX
Protocol: as §1

Chain of hCA I (P00915 whole entry): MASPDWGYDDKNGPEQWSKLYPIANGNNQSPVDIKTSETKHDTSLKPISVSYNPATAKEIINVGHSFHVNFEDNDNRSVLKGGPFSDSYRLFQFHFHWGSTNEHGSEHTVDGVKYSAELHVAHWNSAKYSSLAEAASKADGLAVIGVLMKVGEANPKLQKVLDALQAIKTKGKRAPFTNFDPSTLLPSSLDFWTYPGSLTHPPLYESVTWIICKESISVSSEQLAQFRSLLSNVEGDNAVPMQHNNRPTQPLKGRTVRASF
Chain of hCA XII (O43570 25-354): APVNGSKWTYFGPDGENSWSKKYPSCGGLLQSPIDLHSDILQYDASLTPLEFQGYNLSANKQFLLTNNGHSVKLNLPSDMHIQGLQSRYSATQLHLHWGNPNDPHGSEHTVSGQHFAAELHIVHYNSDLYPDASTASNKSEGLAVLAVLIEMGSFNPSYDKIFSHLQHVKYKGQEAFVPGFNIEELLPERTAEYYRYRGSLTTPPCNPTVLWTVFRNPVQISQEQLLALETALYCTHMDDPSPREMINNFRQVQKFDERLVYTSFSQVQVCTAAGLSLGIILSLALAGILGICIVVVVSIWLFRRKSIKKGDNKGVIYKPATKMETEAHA

| Structure (SMILES) | Ki (hCA I) | Ki (hCA XII) | Ki (hCA II) | melting point | Ki (hCA IX) | selectivity index on hCA IX compared to hCA I (hCA IX; hCA IX compared to hCA I) | selectivity index on hCA IX compared to hCA II (hCA IX; hCA IX compared to hCA II) | selectivity index (SI) for hCA II towards hCA I (hCA II; hCA II compared to hCA I) | selectivity index (SI) for hCA II compared to hCA IX (hCA II; hCA II compared to hCA IX) |
| --- | --- | --- | --- | --- | --- | --- | --- | --- | --- |
| NS(=O)(=O)c1ccc(NC(=O)c2cc(-c3cc(Cl)ccc3O)n[nH]2)cc1 [4f, N-[4-(Aminosulfonyl)phenyl]-3-(5-chloro-2-hydroxyphenyl)-1H-pyrazole-5-carboxamide] | 155 nM | 90.8 nM | 37.2 nM | 302 to 304 °C | 34.2 nM |  |  |  |  |
| COc1cc2c(cc1OC)-c1c(c(C(=O)Nc3ccc(S(N)(=O)=O)cc3)nn1C)C2 [compound 15, N-[4-(Aminosulfonyl)phenyl]-6,7-dimethoxy-1-methyl-1,4-dihydroindeno[1,2-c]pyrazole-3-carboxamide] | 726 nM |  |  |  | 6.1 nM |  |  |  |  |
| NS(=O)(=O)c1ccc(NC(=O)c2cc(-c3ccccc3O)[nH]n2)cc1 [4a, N-[4-(Aminosulfonyl)phenyl]-3-(2-hydroxyphenyl)-1H-pyrazole-5-carboxamide] | 3820 nM | 271 nM | 867 nM |  | 450 nM |  |  |  |  |
| Cc1ccc(O)c(-c2cc(C(=O)Nc3ccc(S(N)(=O)=O)cc3)[nH]n2)c1 [4c, N-[4-(Aminosulfonyl)phenyl]-3-(2-hydroxy-5-methylphenyl)-1H-pyrazole-5-carboxamide] | 221 nM | 250 nM | 16.1 nM | 297 to 299 °C | 8.5 nM | 26 | two times |  |  |
| Cc1ccc(-c2cc(C(=O)Nc3ccc(S(N)(=O)=O)cc3)[nH]n2)c(O)c1 [4b, N-[4-(Aminosulfonyl)phenyl]-3-(2-hydroxy-4-methylphenyl)-1H-pyrazole-5-carboxamide] | 93.3 nM | 372 nM | 309 nM |  | 78.9 nM |  |  |  |  |

The next lines start with the values.

| Ki (hCA I) | Ki (hCA XII) | Ki (hCA II) | melting point | Ki (hCA IX) | selectivity index on hCA IX compared to hCA I (hCA IX; hCA IX compared to hCA I) | selectivity index on hCA IX compared to hCA II (hCA IX; hCA IX compared to hCA II) | selectivity index (SI) for hCA II towards hCA I (hCA II; hCA II compared to hCA I) | selectivity index (SI) for hCA II compared to hCA IX (hCA II; hCA II compared to hCA IX) | Structure (SMILES) |
| --- | --- | --- | --- | --- | --- | --- | --- | --- | --- |
| 6.2 nM | 65.7 nM | 8 nM | 310 to 312 °C | 165 nM |  |  |  |  | NS(=O)(=O)c1ccc(NC(=O)c2nn(-c3ccc(Cl)cc3)ccc2=O)cc1 [10d, N-[4-(Aminosulfonyl)phenyl]-1-(4-chlorophenyl)-4-oxo-1,4-dihydropyridazine-3-carboxamide] |
| 218 nM | 61.3 nM | 25.2 nM | 256 to 258 °C | 63.5 nM |  |  |  |  | Cc1cc(O)c(-c2cc(C(=O)NCCc3ccc(S(N)(=O)=O)cc3)[nH]n2)cc1C [5d, N-{2-[4-(Aminosulfonyl)phenyl]ethyl}-3-(2-hydroxy-4,5-dimethylphenyl)-1H-pyrazole-5-carboxamide] |
| 481 nM | 94.8 nM | 72.5 nM | 313 to 315 °C | 131 nM |  |  |  |  | NS(=O)(=O)c1ccc(NC(=O)c2nn(-c3ccc(F)cc3)ccc2=O)cc1 [10b, N-[4-(Aminosulfonyl)phenyl]-1-(4-fluorophenyl)-4-oxo-1,4-dihydropyridazine-3-carboxamide] |
| 71.4 nM | 191 nM | 16.2 nM |  | 52.3 nM |  |  |  |  | Cc1cc(C)c(O)c(-c2cc(C(=O)NCCc3ccc(S(N)(=O)=O)cc3)[nH]n2)c1 [5e, N-{2-[4-(Aminosulfonyl)phenyl]ethyl}-3-(2-hydroxy-3,5-dimethylphenyl)-1H-pyrazole-5-carboxamide] |
| 88.1 nM |  |  |  |  |  |  |  |  | NS(=O)(=O)c1ccc(CCNC(=O)c2cc(-c3ccccc3O)n[nH]2)cc1 [5a, N-{2-[4-(Aminosulfonyl)phenyl]ethyl}-3-(2-hydroxyphenyl)-1H-pyrazole-5-carboxamide] |
| 345 nM | 330 nM | 16.2 nM | 254 to 255 °C | 16.1 nM |  |  |  |  | Cc1ccc(-c2cc(C(=O)NCCc3ccc(S(N)(=O)=O)cc3)[nH]n2)c(O)c1 [5b, N-{2-[4-(Aminosulfonyl)phenyl]ethyl}-3-(2-hydroxy-4-methylphenyl)-1H-pyrazole-5-carboxamide] |
| 840 nM | 433 nM | 76.3 nM | 297 to 299 °C | 569 nM |  |  |  |  | NS(=O)(=O)c1ccc(NC(=O)c2nn(-c3cccc(Cl)c3)ccc2=O)cc1 [10c, N-[4-(Aminosulfonyl)phenyl]-1-(3-chlorophenyl)-4-oxo-1,4-dihydropyridazine-3-carboxamide] |
| 2150 nM | 77.3 nM | 9.1 nM |  | 79.4 nM |  |  | 236 | 8.7 | NS(=O)(=O)c1ccc(CCNC(=O)c2cc(-c3cc(Cl)ccc3O)n[nH]2)cc1 [5f, N-{2-[4-(Aminosulfonyl)phenyl]ethyl}-3-(5-chloro-2-hydroxyphenyl)-1H-pyrazole-5-carboxamide] |

Source: publication PMC8625619, “Carbonic Anhydrase Inhibition with Sulfonamides Incorporating Pyrazole- and Pyridazinecarboxamide Moieties Provides Examples of Isoform-Selective Inhibitors” (Molecules, 2021)
